Reference: US7247641B2, “Compounds, derivatives, compositions, preparation and uses” (MGI GP, Inc., priority 2001, dated 2007)
Where two headings read alike, the source gives them in different places.

Tests used:
[1] = target: T1, purified recombinant human PARP (Homo sapiens, UniProt P09874); assay: PARP enzyme assay, [3H]NAD incorporation, IC50; type: biochemical
T1 construct: purchased Trevigan (Gaithersburg, Md.)
Protocol: The reaction is initiated by incubating the mixture at 25° C. After 15 minutes of incubation, the reaction is terminated by adding 500 microliters of ice cold 20% (w/v) trichloroacetic acid. The precipitate formed is transferred onto a glass fiber filter (Packard Unifilter-GF/B) and washed three times with ethanol. After the filter is dried, the radioactivity is determined by scintillation counting.

[2] = approximate values, PARP enzyme assay, read-out: IC50

T1 sequence (P09874 whole entry): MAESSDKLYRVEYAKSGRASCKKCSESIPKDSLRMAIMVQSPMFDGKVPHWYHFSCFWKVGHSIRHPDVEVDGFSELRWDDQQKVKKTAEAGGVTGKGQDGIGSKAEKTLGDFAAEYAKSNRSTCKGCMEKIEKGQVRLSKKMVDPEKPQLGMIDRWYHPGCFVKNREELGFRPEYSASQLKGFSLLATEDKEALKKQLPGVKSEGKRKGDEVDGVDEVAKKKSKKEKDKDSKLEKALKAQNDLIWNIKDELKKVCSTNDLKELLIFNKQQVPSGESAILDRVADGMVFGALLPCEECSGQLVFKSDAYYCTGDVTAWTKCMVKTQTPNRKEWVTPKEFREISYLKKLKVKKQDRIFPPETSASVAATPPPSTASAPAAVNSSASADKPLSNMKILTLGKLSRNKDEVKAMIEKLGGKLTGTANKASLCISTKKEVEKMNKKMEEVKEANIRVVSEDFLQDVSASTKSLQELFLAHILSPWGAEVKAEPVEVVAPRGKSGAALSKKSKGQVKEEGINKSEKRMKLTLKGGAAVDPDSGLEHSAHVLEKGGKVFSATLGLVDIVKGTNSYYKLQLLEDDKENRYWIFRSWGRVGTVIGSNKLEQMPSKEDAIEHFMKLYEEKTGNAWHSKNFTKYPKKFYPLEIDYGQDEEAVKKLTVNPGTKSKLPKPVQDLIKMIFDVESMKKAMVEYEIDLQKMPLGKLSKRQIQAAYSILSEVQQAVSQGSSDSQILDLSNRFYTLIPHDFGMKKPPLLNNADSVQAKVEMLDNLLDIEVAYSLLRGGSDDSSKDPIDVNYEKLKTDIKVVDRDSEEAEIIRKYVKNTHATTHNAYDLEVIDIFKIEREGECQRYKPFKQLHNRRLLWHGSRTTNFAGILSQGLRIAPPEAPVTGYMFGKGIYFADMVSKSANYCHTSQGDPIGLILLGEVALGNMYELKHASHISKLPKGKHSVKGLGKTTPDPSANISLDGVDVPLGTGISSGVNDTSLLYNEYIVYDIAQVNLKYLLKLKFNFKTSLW

| IC50 [1, 2] | further results | SMILES |
| --- | --- | --- |
| 87 nM |  | CC(O)CNCCCC(=O)N1CCc2[nH]c(=O)c3ccccc3c2C1 (centres unmarked) [Compound 18c] |
| 3710 nM |  | N[C@H](Cc1ccc(O)cc1)C(=O)N1CCc2[nH]c(=O)c3ccccc3c2C1 [Compound 21k] |
| 322 nM |  | O=C(CCCNC[C@@H]1CCCO1)N1CCc2[nH]c(=O)c3ccccc3c2C1 [Compound 18o] |
| 844 nM |  | O=C(CN1CCCCC1CO)N1CCc2[nH]c(=O)c3ccccc3c2C1 (centres unmarked) [Compound 16e] |
|  | melting point: > 300 °C | O=C1NCN2c3ccccc3Oc3cccc1c32 [Example 6, 1,2-Dihydro-7-oxa-2,11b-diaza-benzo[de]anthracen-3-one] |
| 457 nM |  | O=C(CCCN1CCCCC1)N1CCc2[nH]c(=O)c3ccccc3c2C1 [Compound 18j] |
| 357 nM |  | O=C(CCCNCC(O)c1ccccc1)N1CCc2[nH]c(=O)c3ccccc3c2C1 (centres unmarked) [Compound 18r] |
| 668 nM |  | O=C(CNC[C@H](O)CO)N1CCc2[nH]c(=O)c3ccccc3c2C1 [Compound 16i] |
| 134 nM |  | CCOC(=O)C1CCN(CC(=O)N2CCc3[nH]c(=O)c4ccccc4c3C2)CC1 [Compound 16k] |
| 180 nM |  | CN(CCC(=O)N1CCc2[nH]c(=O)c3ccccc3c2C1)CC(=O)OC(C)(C)C [Compound 17d] |
| 251 nM |  | O=C1CCN(CCCC(=O)N2CCc3[nH]c(=O)c4ccccc4c3C2)CC1 [Compound 18l] |
| 1320 nM |  | O=C(CCCNCCc1ccccc1F)N1CCc2[nH]c(=O)c3ccccc3c2C1 [Compound 18n] |
| 1230 nM |  | NC(Cc1ccccc1)C(=O)N1CCc2[nH]c(=O)c3ccccc3c2C1 (centres unmarked) [Compound 21i] |
| 296 nM |  | O=C1CCN(CC(=O)N2CCc3[nH]c(=O)c4ccccc4c3C2)CC1 [Compound 16l] |
|  | melting point: 250 to 255 °C | O=C1NCn2c3ccccc3c(=O)c3cccc1c32 [Example 8, 1,2-Dihydro-2,11b-diaza-benzo[de]anthracene-3,7-dione] |
| 479 nM |  | O=C(CCCN1CCN(CCO)CC1)N1CCc2[nH]c(=O)c3ccccc3c2C1 [Compound 18g] |
| 385 nM |  | CN(C)CCN(C)CCC(=O)N1CCc2[nH]c(=O)c3ccccc3c2C1 [Compound 17e] |
| 90 nM |  | NCC(=O)N1CCc2[nH]c(=O)c3ccccc3c2C1 [Compound 21a] |
| 185 nM |  | O=C(CCCl)N1CCc2[nH]c(=O)c3ccccc3c2C1 [Compound 14a] |
| 435 nM |  | O=C(CCN1CCCCC1CO)N1CCc2[nH]c(=O)c3ccccc3c2C1 (centres unmarked) [Compound 17f] |
| 36 nM |  | O=C(O)c1cccc(S(=O)(=O)N2CCc3[nH]c(=O)c4ccccc4c3C2)c1 [Compound 22a] |
| 335 nM |  | O=c1[nH]c2c(c3ccccc13)CN(Cc1ccccc1)CC2 [Compound 6a] |
| 558 nM |  | CCOC(=O)C1CCN(CCC(=O)N2CCc3[nH]c(=O)c4ccccc4c3C2)CC1 [Compound 17j] |

| IC50 [1, 2] | further results | SMILES |
| --- | --- | --- |
|  | melting point: 205 to 208 °C | O=C1NCN2c3ccc([N+](=O)[O-])cc3Sc3cccc1c32 [Example 5, 9-Nitro-1,2-dihydro-7-thia-2,11b-diaza-benzo[de]anthracen-3-one] |
| 105 nM |  | O=C(NCCN1CCCCC1)N1CCc2[nH]c(=O)c3ccccc3c2C1 [Compound 21o] |
| 241 nM |  | CN1CCN(CCCC(=O)N2CCc3[nH]c(=O)c4ccccc4c3C2)CC1 [Compound 18b] |
| 220 nM |  | O=c1[nH]c2c(c3ccccc13)CCN(Cc1ccccc1)C2 [Compound 11] |
| 13100 nM |  | O=C(CN1CCN(CCO)CC1)N1CCc2[nH]c(=O)c3ccccc3c2C1 [Compound 16f] |
| 482 nM |  | CCOC(=O)C1CCN(CCCC(=O)N2CCc3[nH]c(=O)c4ccccc4c3C2)CC1 [Compound 18k] |
| 152 nM |  | CN(C)CCCC(=O)N1CCc2[nH]c(=O)c3ccccc3c2C1 [Compound 18h] |
| 1580 nM |  | O=C(CN1CCc2ccccc2C1)N1CCc2[nH]c(=O)c3ccccc3c2C1 [Compound 16h] |
| 410 nM |  | O=C(CCCN1CC=CCC1)N1CCc2[nH]c(=O)c3ccccc3c2C1 [Compound 18m] |
|  | melting point: 288 to 292 °C | O=C1NC(c2ccccc2)n2c3ccccc3c(=O)c3cccc1c32 (centres unmarked) [Example 9] |
|  | IC50 [1]: 80 nM | O=c1[nH]c2c(c3ccccc13)CN(S(=O)(=O)CCN1CCC(N3CCCC3)CC1)CC2 [Compound 24a] |
| 214 nM |  | O=C(CN1CC=CCC1)N1CCc2[nH]c(=O)c3ccccc3c2C1 [Compound 16m] |
| 156 nM |  | O=C(CCCNCC1(O)CCCCC1)N1CCc2[nH]c(=O)c3ccccc3c2C1 [Compound 18s] |
| 1800 nM |  | CN1CCN(CCC(=O)N2CCc3[nH]c(=O)c4ccccc4c3C2)CC1 [Compound 17b] |
| 244 nM |  | O=C(CCN1CCc2ccccc2C1)N1CCc2[nH]c(=O)c3ccccc3c2C1 [Compound 17g] |
| 426 nM |  | CN(C)CCCN(C)CC(=O)N1CCc2[nH]c(=O)c3ccccc3c2C1 [Compound 16a] |
| 71 nM |  | O=C(CCN1CCCCC1)N1CCc2nc(O)c3ccccc3c2C1 [Compound 17i] |
| 495 nM |  | CN(CCCC(=O)N1CCc2[nH]c(=O)c3ccccc3c2C1)CC(=O)OC(C)(C)C [Compound 18d] |
| 1670 nM |  | CN1CCN(CC(=O)N2CCc3[nH]c(=O)c4ccccc4c3C2)CC1 [Compound 16b] |
| 644 nM |  | CN(C)CC(=O)N1CCc2[nH]c(=O)c3ccccc3c2C1 [Compound 16g] |
| 421 nM |  | CC(O)CNCC(=O)N1CCc2[nH]c(=O)c3ccccc3c2C1 (centres unmarked) [Compound 16c] |
| 985 nM |  | CN(C)CCN(C)CC(=O)N1CCc2[nH]c(=O)c3ccccc3c2C1 [Compound 16d] |
| 268 nM |  | O=C(C1CCCN1)N1CCc2[nH]c(=O)c3ccccc3c2C1 (centres unmarked) [Compound 21d] |

| IC50 [1, 2] | further results | SMILES |
| --- | --- | --- |
| 182 nM |  | O=c1[nH]c2c(c3ccc(F)cc13)CN(Cc1ccccc1)CC2 [Compound 6b] |
| 492 nM |  | CN(C)CCN(C)CCCC(=O)N1CCc2[nH]c(=O)c3ccccc3c2C1 [Compound 18e] |
| 58 nM |  | CC(=O)N1CCc2[nH]c(=O)c3ccccc3c2C1 [Compound 21n] |
| 282 nM |  | CN(C)CCCN(C)CCC(=O)N1CCc2[nH]c(=O)c3ccccc3c2C1 [Compound 17a] |
| 304 nM |  | O=C(c1cccc(S(=O)(=O)N2CCc3[nH]c(=O)c4ccccc4c3C2)c1)N1CCC(N2CCCC2)CC1 [Compound 23b] |
| 698 nM |  | CC(C)C(N)C(=O)N1CCc2[nH]c(=O)c3ccccc3c2C1 (centres unmarked) [Compound 21c] |
| 799 nM |  | O=C(c1cccc(CCl)c1)N1CCc2c([nH]c(=O)c3ccccc23)C1 [Compound 21p] |
| 2180 nM |  | CC(O)CNCCC(=O)N1CCc2[nH]c(=O)c3ccccc3c2C1 (centres unmarked) [Compound 17c] |
| 292 nM |  | C=CS(=O)(=O)N1CCc2[nH]c(=O)c3ccccc3c2C1 [Compound 22c] |
| 185 nM |  | CN(C)CCCN(C)CCCC(=O)N1CCc2[nH]c(=O)c3ccccc3c2C1 [Compound 18a] |
| 62 nM |  | NCCC(=O)N1CCc2[nH]c(=O)c3ccccc3c2C1 [Compound 21l] |
| 672 nM |  | O=C(CCCN1CCCCC1CO)N1CCc2[nH]c(=O)c3ccccc3c2C1 (centres unmarked) [Compound 18f] |
| 441 nM |  | CN1CCN(C(=O)c2cccc(S(=O)(=O)N3CCc4[nH]c(=O)c5ccccc5c4C3)c2)CC1 [Compound 23a] |
| 382 nM |  | NC(Cc1ccc(O)cc1)C(=O)N1CCc2[nH]c(=O)c3ccccc3c2C1 (centres unmarked) [Compound 21j] |
|  | melting point: 187 to 192 °C | O=C1NCN2c3ccccc3Sc3cccc1c32 [Example 1, 1,2-Dihydro-7-thia-2,11b-diaza-benzo[de]anthracen-3-one] |
| 251 nM |  | C[C@H](CO)NCCCC(=O)N1CCc2[nH]c(=O)c3ccccc3c2C1 [Compound 18q] |
| 111 nM |  | O=C1CCN(CCC(=O)N2CCc3[nH]c(=O)c4ccccc4c3C2)CC1 [Compound 17k] |
| 164 nM |  | O=C(CCNCCc1ccccc1F)N1CCc2[nH]c(=O)c3ccccc3c2C1 [Compound 17m] |
| 167 nM |  | O=C(CCCNC[C@H]1CCCO1)N1CCc2[nH]c(=O)c3ccccc3c2C1 [Compound 18p] |
| 250 nM |  | O=C(CCNC[C@H](O)CO)N1CCc2[nH]c(=O)c3ccccc3c2C1 [Compound 17h] |
|  | melting point: 227 to 228 °C | O=C1NCN2c3ccc(S(=O)(=O)NCCN4CCOCC4)cc3Sc3cccc1c32 [Example 3, 3-Oxo-2,3-dihydro-1H-7-thia-2,11b-diaza-benzo[de]anthracene-9-(N2-morpholin-4-yl-ethyl)sulfonamide] |
|  | melting point: 170 to 172 °C | O=C1NCN2c3ccc(S(=O)(=O)NCCN4CCCCC4)cc3Sc3cccc1c32 [Example 4, 3-Oxo-2,3-dihydro-1H-7-thia-2,11b-diaza-benzo[de]anthracene-9-(N-2-piperidin-1-yl-ethyl)-sulfonamide] |
